Consider 8 compounds from paper PMC7801053, “Diarylalkanoids as Potent Tyrosinase Inhibitors from the Stems of Semecarpus caudata” (Evidence-based Complementary and Alternative Medicine : eCAM, 2021).

The term IC50 denotes the concentration needed to halve the response being measured. In general, Ki refers to the dissociation constant of the complex between target and ligand, obtained from inhibition or displacement.

The first test addresses Tyrosinase (EC 1.14.18.1) from mushroom. Put plainly: Tyrosinase inhibitory assay (L-DOPA substrate, absorbance at 475 nm). Conditions: read-out: IC50 (tyrosinase inhibitory activity); mushroom tyrosinase 15 U/mL, L-DOPA 1.5 mM, phosphate buffer pH 6.8, preincubated 30 min, n = 3.
Procedure: Optical values were measured on a Shimadzu UV-1800 spectrophotometer (Shimadzu Pte., Ltd., Singapore). […] Tyrosinase (EC 1.14.18.1) from mushroom (3933 U·mL^−1) and L-dihydroxyphenylalanine (L-DOPA) were obtained from Sigma-Aldrich (Sigma-Aldrich Pte., Ltd., Singapore). Other chemicals were of the highest grade available.
All pure compounds were dissolved in DMSO and tested at concentrations ranging from 0.01 to 100 μM. Assay mixtures in 0.1 M phosphate buffer pH 6.8 were prepared immediately before use, consisting of 100 μL of tyrosinase solution (15 U/mL) and 1900 μL of test solution. These mixtures were preincubated at room temperature for 30 min, followed by addition of 1000 μL of L-DOPA 1.5 mM in pH 6.8 phosphate buffer and incubated at room temperature for 7 min. The absorbances (A) at 475 nm were acquired on Shimadzu UV-1800 spectrophotometer. The inhibitory percentage (I%) was calculated according to the formula: I% = ((Acontrol − Asample)/Acontrol) × 100%. Data were represented as means ± standard error (n = 3). The IC50 values were determined by using GraphPad Prism software with multivariate nonlinear regression and R^2 > 0.9.
Regarding `O=C(/C=C/C=C/c1ccc(O)cc1O)c1ccc(O)cc1O` [Compound 1, 2E,4E-1,5-bis(2,4-dihydroxyphenyl)penta-2,4-dien-1-one], the IC50 worked out at 0.033 µM.

Take `O=C(/C=C/C=C/C=C/c1ccc(O)cc1O)c1ccc(O)cc1O` [Compound 2, 2E,4E,6E-1,7-bis(2,4-dihydroxyphenyl)hepta-2,4,6-trien-1-one]: the IC50 was found to be 0.11 µM.

Take `COC1=CC(=O)C=C(OC)C1=O` [Compound 3, 2,6-dimethoxybenzoquinone]: the IC50 is greater than 100 µM. Same read-out and setting: the same measure for `O=C(O)/C=C/c1ccc(O)cc1` [Compound 4, p-coumaric acid]: 2.35 µM; for `CC(=O)/C=C/c1ccc(O)c(O)c1` [Compound 6, trans-4-(3,4-dihydroxyphenyl)but-3-en-2-one]: 27 µM. Still for that read-out and setting: the same measure for `COc1cc(/C=C/C(=O)O)ccc1O` [Compound 7, ferulic acid]: greater than 100 µM; for `O=C(/C=C/c1ccc(O)cc1O)c1ccc(O)cc1O` [Compound 8, 2,4,2′,4′-Tetrahydroxychalcone]: 0.016 µM.

Another test has as its target tyrosinase.
Test: not given
The following applies: read-out: tyrosinase inhibitory constant (Ki); ref Choi et al. [25]; cited from earlier work.
For the compound `O=c1[nH]cnc2nc[nH]c12` [Hypoxanthine], the Ki is greater than 1000 µM.
